Reference: patent US20110319392A1, “Thiazole Sulfonamide And Oxazole Sulfonamide Kinase Inhibitors” (priority 2009, published 2011)
Where a name gives a salt, the structure may show the parent alone.

Key:
B-Raf = B-Raf (Homo sapiens, UniProt P15056); assay: B-Raf Accelerated MEK ATPase assay (BRAMA), Method A or B; format: biochemical
Procedure, shortened: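 Activated Raf plus non-phosphorylated MEK drives MEK-mediated ATP hydrolysis; ADP formation coupled via pyruvate kinase/lactate dehydrogenase to NADH oxidation. Method A read kinetically; Method B used 150 nM final MEK and a single end-point read.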

SK-MEL-28 tumor cells = assay: Cell growth inhibition assay (CellTiter-Glo), SK-MEL-28; format: cell-based, Human; conditions: 3 days incubation
Procedure, shortened: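 Cells plated at 500 cells/well in their growth media, dosed next day with nine-step 1:3 compound dilutions (final DMSO 0.2%), then incubated 3 days at 37° C, 5% CO2. Total ATP read by CellTiter-Glo luminescence as a surrogate for cell number; IC50 interpolated from 4-parameter fit versus DMSO controls.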

A375P F11s tumor cells = assay: Cell growth inhibition assay (CellTiter-Glo), A375P F11s; format: cell-based, Human; conditions: for IC50: Homo sapiens
Procedure: Human breast tumor cells (BT474) were cultured in RPMI (Mediatech […]), containing 10% FBS (JRH Biosciences 12176) and 1% penicillin-streptomycin (Invitrogen 15140). Human head and neck tumor cells (HN5) were cultured in high glucose DMEM (Mediatech 50-013-PB) containing 10% FBS and 1% penicillin-streptomycin. Human colon tumor cells (Colo205) were cultured in RPMI (Mediatech 50-020-PB) containing 10% FBS and 1% penicillin-streptomycin. Human melanoma cancer cells (SK-MEL-28) were cultured in EMEM with nonessential amino acids (Mediatech 50-011-PB) containing 10% FBS, 1% sodium pyruvate (JT Baker 3354-04), and 1% penicillin-streptomycin. Human melanoma cancer cells (A375P F11s) were cultured in RPMI (Mediatech 50-020-PB) containing 10% FBS, 1% sodium pyruvate, and 1% penicillin-streptomycin. Human colon cancer cells (HT-29) were cultured in high glucose DMEM (Mediatech 50-013-PB) containing 10% FBS and 1% penicillin-streptomycin. Human melanoma cancer cells (SK-MEL-3) were cultured in McCoy's 5A (50-025-PB) containing 15% FBS, and 1% penicillin-streptomycin. All cell lines were maintained at 37° C. in a humidified 5% CO2, 95% air incubator. Cells were harvested using trypsin/EDTA (Invitrogen 25200), counted using a haemocytometer, and plated. For 96-well assays (using white full-area NUNC plates cat. #136102), cells were plated in 105 μL at the following densities (cells/well): HNS, 500; Colo 205, 500; SK-MEL-28, 500; A375P F11s, 500; HT-29, 500; SK-MEL-3, 500; and BT474, 3000. For 384-well assays (white full-area NUNC plates, cat. #781080), cells were plated in 48 μL at the following densities (cells/well): HNS, 500; Colo205, 500; SK-MEL-28, 500; A375P F11s, 500; HT-29, 500; SK-MEL-3, 500; and BT474, 2000.
The next day, compounds were diluted as follow: For 96-well assays, 13.5 μL of compound in DMSO were diluted using nine (9) serial 1:3 dilutions of 4.5 μL in 9 of DMSO. Medium (270 μL/well of RPMI with 10% FBS and 1% penicillin-streptomycin) was added to the plates. Aliquots (7 μL) were added to cells in the final assay giving a final DMSO concentration of 0.2%. For 384-well assays, 15 μL of compound in DMSO were diluted using nine (9) serial 1:3 dilutions of 5 μL in 10 μL of DMSO, followed by a further dilution of 5 μL of compound with 95 μL of medium, of which 2 μL were added to cells in the final assay giving a final DMSO concentration of 0.2%. Cells were incubated at 37° C., 5% CO2 for 3 days.
Total ATP was measured (as a surrogate estimate of cell number) using CellTiter-Glo® reagent (Promega G7571). Briefly, plates were removed from the incubator and allowed to equilibrate to room temperature for 30 minutes. CellTiter-Glo® (25 μL or 55 μL for 384-well or 96-well assays, respectively) reagent was added to each well and plates were shaken on an orbital plate shaker for 2 minutes. Plates were incubated without shaking for a further 30 minutes and read on an LJL Analyst GT reader in luminometer mode with an integration time of 0.5 seconds per well. Percent inhibition of cell growth was calculated relative to DMSO vehicle-treated control wells. Concentration of compound required to give 50% inhibition of vehicle-treated control cell growth (IC50) was interpolated using a 4-parameter fit for determining IC50 using the following equation: Y=A +((B−A)/(1+((C/X)̂D))) where […].

[1] = Method B: final MEK 150 nM, single end point read

Chain of B-Raf (P15056 whole entry): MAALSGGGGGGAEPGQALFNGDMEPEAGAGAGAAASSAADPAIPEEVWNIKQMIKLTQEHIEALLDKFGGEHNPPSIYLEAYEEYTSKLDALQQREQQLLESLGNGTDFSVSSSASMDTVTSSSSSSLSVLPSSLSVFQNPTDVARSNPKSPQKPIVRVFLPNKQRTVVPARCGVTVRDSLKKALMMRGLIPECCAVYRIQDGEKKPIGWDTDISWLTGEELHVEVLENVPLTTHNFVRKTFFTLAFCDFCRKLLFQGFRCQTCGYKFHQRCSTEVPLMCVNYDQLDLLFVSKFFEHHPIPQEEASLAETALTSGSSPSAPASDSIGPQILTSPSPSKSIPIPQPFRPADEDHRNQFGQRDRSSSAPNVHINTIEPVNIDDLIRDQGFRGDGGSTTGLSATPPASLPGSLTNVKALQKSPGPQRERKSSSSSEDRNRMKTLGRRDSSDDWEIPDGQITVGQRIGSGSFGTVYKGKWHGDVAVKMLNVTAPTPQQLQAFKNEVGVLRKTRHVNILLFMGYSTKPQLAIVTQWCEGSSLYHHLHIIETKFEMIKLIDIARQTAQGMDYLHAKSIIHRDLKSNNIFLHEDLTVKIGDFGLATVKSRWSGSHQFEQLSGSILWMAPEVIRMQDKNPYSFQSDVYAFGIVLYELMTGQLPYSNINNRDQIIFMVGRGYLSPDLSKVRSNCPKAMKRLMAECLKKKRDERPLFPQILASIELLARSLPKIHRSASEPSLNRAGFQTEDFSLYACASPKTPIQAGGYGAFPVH

SMILES | IC50 (B-Raf; [1]) [nM] | IC50 (SK-MEL-28 tumor cells; Homo sapiens, SK-MEL-28, 72 h) [nM] | IC50 (A375P F11s tumor cells) [nM] | Activity in A375P F11s Tumor Cells (A375P F11s tumor cells) | IC50 (B-Raf; Method A) [nM] | IC50 (SK-MEL-28 tumor cells) [nM]
CCNc1nc(-c2cccc(NS(=O)(=O)c3c(F)cccc3F)c2)c(-c2ccnc(Nc3ccc(N4CCOCC4)nc3)n2)s1 [Example 152] | < 100 | < 100 | < 100 | – | – | –
CC(=O)N1CCN(c2ccc(Nc3nccc(-c4sc(C(C)C)nc4-c4cccc(NS(=O)(=O)c5cccc(C(F)(F)F)c5)c4)n3)cn2)CC1 [Example 70] | 100 to 1000 | 100 to 1000 | 100 to 1000 | – | – | –
Cc1nc(Cl)sc1S(=O)(=O)Nc1cccc(-c2nc(C(C)C)sc2-c2ccnc(Nc3ccc(N4CCOCC4)nc3)n2)c1 [Example 42] | < 100 | < 100 | 100 to 1000 | – | – | –
CC(C)(C)c1nc(-c2ccc(F)c(NS(=O)(=O)c3c(F)cccc3F)c2)c(-c2ccnc(Nc3ccc(N4CCOCC4)nc3)n2)s1 [Example 28, N-{5-[2-(1,1-Dimethylethyl)-5-(2-{[[6-(4-morpholinyl)-3-pyridinyl]amino}-4-pyrimidinyl)-1,3-thiazol-4-yl]-2-fluorophenyl]-2,6-difluorobenzenesulfonamide hydrochloride] | < 100 | < 100 | < 100 | – | – | –
Nc1nc(-c2cccc(NS(=O)(=O)c3c(F)cccc3F)c2)c(-c2ccnc(Nc3ccc(N4CCOCC4)nc3)n2)s1 [Example 62] | < 100 | < 100 | < 100 | – | – | –
O=S(=O)(Nc1cc(-c2nc(N3CCOCC3)sc2-c2ccnc(Nc3ccc4c(c3)OCCO4)n2)ccc1F)c1c(F)cccc1F [Example 127] | 100 to 1000 | 100 to 1000 | – | + (activity of >1 μM in A375P F11s tumor cells) | – | –
CCNc1nc(-c2cccc(NS(=O)(=O)c3ccccc3)c2)c(-c2ccnc(Nc3ccc(OCCN4CCCC4)c(F)c3)n2)s1 [Example 65] | – | – | 100 to 1000 | – | < 100 | 100 to 1000
CC(C)c1nc(-c2ccc(F)c(NS(=O)(=O)c3c(F)cccc3F)c2)c(-c2ccnc(Nc3ccnc(N4CCOCC4)c3)n2)s1 [Example 117] | < 100 | < 100 | 100 to 1000 | – | – | –
CC(C)c1nc(-c2ccnc(NS(=O)(=O)c3c(F)cccc3F)c2)c(-c2ccnc(Nc3ccc(N4CCN(CCF)CC4)c(F)c3)n2)s1 [Example 100] | < 100 | < 100 | < 100 | – | – | –
CC(C)c1nc(-c2ccc(F)c(NS(=O)(=O)c3c(F)cccc3F)c2)c(-c2ccnc(Nc3ccc(N4CCOCC4)nc3)n2)s1 [Example 23, 2,6-Difluoro-N-{2-fluoro-5-[2-(1-methylethyl)-5-(2-{[6-(4-morpholinyl)-3-pyridinyl]amino}-4-pyrimidinyl)-1,3-thiazol-4-yl]phenyl}benzenesulfonamide] | < 100 | < 100 | < 100 | – | – | –
O=S(=O)(Nc1cccc(-c2nc(N3CCOCC3)sc2-c2ccnc(Nc3ccc(N4CCOCC4)nc3)n2)c1Cl)c1c(F)cccc1F [Example 146] | < 100 | < 100 | < 100 | – | – | –
CC(=O)N1CCN(c2ccc(Nc3nccc(-c4sc(C(C)C)nc4-c4cccc(NS(=O)(=O)c5ccc(F)cc5)c4)n3)cn2)CC1 [Example 10, N-{3-[5-(2-{[6-(4-Acetyl-1-piperazinyl)-3-pyridinyl]amino}-4-pyrimidinyl)-2-(1-methylethyl)-1,3-thiazol-4-yl]phenyl}-4-fluorobenzenesulfonamide] | < 100 | < 100 | < 100 | – | – | –
CN(C)c1nc(-c2ccc(F)c(NS(=O)(=O)c3c(F)cccc3F)c2)c(-c2ccnc(Nc3ccc(N4CCN(S(C)(=O)=O)CC4)nc3)n2)s1 [Example 112] | < 100 | 100 to 1000 | 100 to 1000 | – | – | –
Cc1cc(Nc2nccc(-c3sc(C(C)(C)C)nc3-c3cccc(NS(=O)(=O)c4c(F)cccc4F)c3F)n2)ccn1 [Example 159] | < 100 | < 100 | < 100 | – | – | –
